In patent US5693756A, “Amiloride-sensitive sodium channel and method of identifying substances which stimulate or block salty taste perception” (The Johns Hopkins University, priority 1995, dated 1997):

Legend:
αENACa [1] = target: T1, αENACa (Rattus norvegicus, UniProt P37089); assay: [3H]phenamil binding to membranes from HEK-293 cells transfected with αENACa
T1 construct: expressed in transfected cells
T1 sequence (P37089 with tags, fused parts or gaps limits assumed): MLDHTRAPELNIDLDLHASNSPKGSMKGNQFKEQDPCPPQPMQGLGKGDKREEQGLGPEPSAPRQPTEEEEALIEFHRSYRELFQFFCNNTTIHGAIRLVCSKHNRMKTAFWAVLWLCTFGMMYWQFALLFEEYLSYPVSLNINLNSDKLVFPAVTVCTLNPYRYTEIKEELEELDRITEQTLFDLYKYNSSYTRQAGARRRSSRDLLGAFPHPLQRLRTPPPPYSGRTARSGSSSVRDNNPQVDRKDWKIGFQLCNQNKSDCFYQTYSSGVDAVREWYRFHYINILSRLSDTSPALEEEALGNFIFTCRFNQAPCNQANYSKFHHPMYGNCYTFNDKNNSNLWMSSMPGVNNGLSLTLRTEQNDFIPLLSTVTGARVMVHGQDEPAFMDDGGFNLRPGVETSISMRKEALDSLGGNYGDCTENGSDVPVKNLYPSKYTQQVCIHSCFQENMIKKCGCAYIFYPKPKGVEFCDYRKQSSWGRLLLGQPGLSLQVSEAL
Description: (§1) Amiloride sensitive sodium channels have been extensively characterized in intact tissues by the binding of radioactive ligands. […] To limit variations in expression of individual clones, a pool of stably expressed cells (about 30 clones) that were mixed and propagated 3-4 times were used for the binding assay.
(§2) The full length cDNA of αENAC obtained by screening a rat taste cDNA library as described above (also described by Li et al., 1994, Proc. Natl. Acad. Sci. USA, 91:1814-1818, the disclosure of which is incorporated herein by reference) was cut with Not I and Xho I and inserted into an expression vector pcDNA-III (Invitrogen). The PCR product of the alternatively spliced form αENACa was cut with Bcl I to replace the corresponding region of native αENAC in pcDNA III. Thus the native form (αENAC) and an alternatively spliced form (αENACa) of the alpha subunit of ENAC in the expression vector was constructed for stable expression in HEK-293 cells. DNA (10 μg) was then transfected into HEK-293 cells by the calcium phosphate technique. Stable expression clones of cells were selected by exposure for 4-6 weeks to a medium containing 500 μg/ml G418.
(§3) Transfected HEK-293 cells were harvested in cold (4° C.) binding buffer containing 1 mM EDTA, 15 mM Tris-HCl (pH 7.7), 1 μM pepstain A, 0.1 μM aprotinin, 0.1 mM phenylmethylsulfonyl fluoride and 10 μM leupeptin. Cells were then homogenized, centrifuged and the pellet resuspended in the binding buffer at 1-2 mg/ml concentration. The reaction mixture (0.2 ml) containing [^3 H]phenamil ([…]) and 100 μg protein was incubated at 4° C. for 90 minutes and the reaction terminated by rapid filtration through Whatman GF/B glass fiber filters pretreated with 0.3% polyethyleneimine. Amiloride (Sigma) suspended in 50% dimethylformamide was used as a competitor in the binding assay. Proteins was assayed by a kit (Pierce) with bovine serum albumin as a standard.
(§4) [^3 H]phenamil binding in HEK-293 cells transfected with native αENAC or alternatively spliced αENACa are compared in FIGS. 9A and 9B. […]

αENAC [2] = target: T2, αENAC (Rattus norvegicus, UniProt P37089); assay: [3H]phenamil binding to membranes from HEK-293 cells transfected with native αENAC
T2 construct: alpha subunit transfected alone
T2 sequence (P37089 1-698): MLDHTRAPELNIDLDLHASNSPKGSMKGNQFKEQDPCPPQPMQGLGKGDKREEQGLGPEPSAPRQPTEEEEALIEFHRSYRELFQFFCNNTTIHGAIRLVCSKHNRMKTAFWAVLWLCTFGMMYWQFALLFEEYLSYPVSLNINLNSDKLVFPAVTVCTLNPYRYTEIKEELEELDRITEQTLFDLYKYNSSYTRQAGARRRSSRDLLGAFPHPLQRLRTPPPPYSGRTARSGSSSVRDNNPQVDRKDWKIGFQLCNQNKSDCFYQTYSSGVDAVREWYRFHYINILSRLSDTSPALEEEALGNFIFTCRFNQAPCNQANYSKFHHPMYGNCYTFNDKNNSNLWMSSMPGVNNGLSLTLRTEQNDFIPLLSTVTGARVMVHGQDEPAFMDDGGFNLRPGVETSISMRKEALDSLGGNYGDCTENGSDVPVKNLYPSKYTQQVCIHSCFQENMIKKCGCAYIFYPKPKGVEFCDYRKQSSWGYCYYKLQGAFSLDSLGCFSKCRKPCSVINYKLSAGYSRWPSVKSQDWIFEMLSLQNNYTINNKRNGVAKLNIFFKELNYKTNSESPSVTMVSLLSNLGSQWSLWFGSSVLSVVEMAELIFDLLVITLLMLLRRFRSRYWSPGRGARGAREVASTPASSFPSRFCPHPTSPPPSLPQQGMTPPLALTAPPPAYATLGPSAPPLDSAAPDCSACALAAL
Description: as §1, §2, §3, §4

αENACa [3] = target: T1, αENACa; assay: Inhibition by amiloride of [3H]phenamil binding to membranes from HEK-293 cells transfected with αENACa; conditions: 50 nM [3H]phenamil
Description: as §3
(§5) Membrane protein (100 μg) was incubated with 50 nM [^3 H]phenamil in the absence or presence of increasing concentrations of amiloride. Three independent experiments were performed in duplicate. Results are presented of a typical experiment with values varying less than 20%.

αENAC [4] = target: T2, αENAC; assay: Inhibition by amiloride of [3H]phenamil binding to membranes from HEK-293 cells transfected with native αENAC; conditions: 50 nM [3H]phenamil, 100 μg membrane protein, increasing concentrations of amiloride
Description: as §3, §5

Row | specific [3H]phenamil binding, versus cells not transfected with the channel (αENACa [1]; HEK-293 cells transfected with αENACa, 50 nM [3H]phenamil, 1 mM amiloride) | Bmax (αENACa [1]; saturation analysis, membranes of HEK-293 cells transfected with αENACa) [pmol/mg protein] | Kd (αENACa [1]; saturation analysis, membranes of HEK-293 cells transfected with αENACa, 4° C., 90 minutes, read-out: apparent Kd) [nM] | levels of [3H]phenamil binding, versus cells transfected only with the expression vector (αENAC [2]; HEK-293 cells transfected with native αENAC, 50 nM [3H]phenamil, 1 mM amiloride) | Bmax (αENAC [2]; saturation analysis, membranes of HEK-293 cells transfected with αENAC) [pmol/mg protein] | Kd (αENAC [2]; saturation analysis, membranes of HEK-293 cells transfected with αENAC, 4° C., 90 minutes) [nM] | Compound | inhibition of [3H]phenamil binding (αENACa [3]; 100 μg membrane protein, increasing concentrations of amiloride, αENACa) | potency in competing for [3H]phenamil binding, αENACa transfected cells relative to native channel (αENACa [3]; αENACa versus native αENAC) | inhibition of [3H]phenamil binding (αENAC [4])
1 | doubling | 28 | 260 | not significantly greater | 18 | 270 | NC(=Nc1ccccc1)NC(=O)c1nc(Cl)c(N)nc1N [[^3 H]phenamil, phenamil] |  |  | 
2 |  |  |  |  |  |  | N=C(N)NC(=O)c1nc(Cl)c(N)nc1N [amiloride, N-amidino-3,5-diamino-6-chloropyrazine carboxamide] | inhibited | about 10 times | inhibited
